Two compounds from patent US20220170945A1, “METHOD FOR ASSISTING EVALUATION OF RENAL PATHOLOGICAL CONDITIONS, SYSTEM FOR EVALUATING RENAL PATHOLOGICAL CONDITIONS AND PROGRAM FOR EVALUATING RENAL PATHOLOGICAL CONDITIONS” (Kagami Inc., priority 2019, published 2022) can be followed below.

The conditions of this data set: human, in vivo. From the text: According to the invention, the excretion rate (excretion) is a marker representing the degree of discharge into urine of the amount of target components that have been filtered through the glomeruli by way of the regulating function of the renal tubules (reabsorption and secretion), and it is expressed as a proportion or percentage, or in arbitrary units. The value can be calculated after excluding the effect of reabsorption or concentration of water by correction using a correction factor, and expressed as fractional excretion (FE). Since urine often has a variable concentration rate, the percentages of reabsorption and excretion of D-serine and/or D-asparagine in the kidneys of a subject may be corrected using a “correction factor” that corrects for the urine concentration rate. According to one embodiment of the invention, for example, the subject D-serine excretion rate and/or the subject D-asparagine excretion rate may be corrected by a correction factor derived from the blood and/or urine. In its most simple form, the excretion rate is expressed as a percentage of the amount of target components in urine divided by the glomerular filtration rate for the target components, and the glomerular filtration rate obtained by inulin clearance or the actually measured urinary volume, as well as the amounts of target components in blood and/or in urine, may also be used for the calculation. L-amino acid levels (preferably the levels of L-serine and/or L-asparagine) in urine may also be used as urinary volume correction factors for calculation of the D-amino acid excretion rate. Creatinine clearance, calculated by urine creatinine level or the blood creatinine level, may also be used as a correction factor, expressing the D-serine excretion rate by the following formula, for example. This may then be multiplied by 100 to obtain a percent (%).
The test protocol was approved by the ethics committee of the national research and development agency: National Institutes of Biomedical Innovation, Health and Nutrition, and written informed consent was obtained from all of the test subjects.
Sample preparation from human blood plasma and urine was carried out as follows: First a 20-fold volume of methanol was added to and completely mixed with the blood plasma. […]
The amino acid optical isomers were quantified using the following two-dimensional HPLC system. […] NBD-amino acids were detected by fluorescence detection at 530 nm using excitation light of 470 nm. The NBD-amino acid retention time was identified from standard amino acid optical isomers and quantified by a calibration curve.
The blood urine D-serine level and blood urine D-asparagine level and creatinine level were calculated by substitution into the following formulas.

On to `N[C@H](CO)C(=O)O` [D-serine], for which the “excretion rate after administration of ARB” value is recorded as 25.73% and the “excretion rate before administration of ARB” value came out at 64.56%.

For `NC(=O)C[C@@H](N)C(=O)O` [D-asparagine], the “excretion rate after administration of ARB” value is listed as 35.39% and the “excretion rate before administration of ARB” value is reported as 45.71%.
